Ten compounds from patent US20250188092A1, “RIFAMYCIN ANALOGS” (THE REGENTS OF THE UNIVERSITY OF MICHIGAN, priority 2021, published 2025) can be followed below.

Experiment [1] deals with M. tuberculosis transformed with luxABCDE. The experiment can be described thus: microbe, parasite or virus in culture. The class given is cell-based, Mycobacterium tuberculosis. Conditions: for MBC / MIC90: Mycobacterium tuberculosis, 168 h.
Experiment [2] relates to non-replicating cultures of M. tuberculosis H37Rv transformed with lux ABCDE. As to the kind of experiment: microbe, parasite or virus in culture. In kind it is cell-based, Mycobacterium tuberculosis. Conditions: for MIC90 / MIC: Mycobacterium tuberculosis, H37RV, ≥90% reduction in luminescence, read-out: MIC90 LORA; for MIC90 LORA/MABA: ratio of LORA MIC90 to MABA MIC90. (In general: Resazurin is reduced to fluorescent resorufin, in cell work by metabolically active cells.)

Where [3] appears, read: […], ≥99% reduction in luminescence, read-out: MBC99 Day 7 (Lux Assay) MBC.
Setting [4] is: day 7 of time-kill study, read-out: MBC99.

Values after ≈ are worked out from the molar mass of the structure shown. Read-outs that look alike come from different tables or passages of the source.

As for `CO[C@H]1/C=C/O[C@@]2(C)Oc3c(C)c(O)c4c(=O)c(c5oc6cc(N7CCOC(CN(C)C)C7)cc(OCc7ccc(CN8CCOCC8)cc7)c6nc-5c4c3C2=O)NC(=O)/C(C)=C\C=C\[C@H](C)[C@H](O)[C@@H](C)[C@@H](O)[C@@H](C)[C@H](OC(C)=O)[C@@H]1C` (stereo partly drawn) [Compound 17o, (7S,9E,11S,12R,13S,14R,15R,16R,17S,18S,19E,21Z)-30-{2-[(dimethylamino)methyl]morpholin-4-yl}-2,15,17-trihydroxy-11-methoxy-3,7,12,14,16,18,22-heptamethyl-32-{[4-(morpholin-4-ylmethyl)phenyl]methoxy}-6,23,37-trioxo-8,27,38-trioxa-24,34-diazahexacyclo[23.11.1.1^4,7.0^5,36.0^26,35.0^28,33]octatriaconta-1,3,5(36)9,19,21,25,28,30,32,34-undecaen-13-yl acetate], in experiment [1], the “MBC99 Day 7 (Lux Assay) MBC Rel to RMP” value was 0.28. Also, the MBC in experiment [1] (setting [3]) amounted to 0.128 µM. For the same compound, in experiment [2], the “MIC90 LORA Rel to RMP” value came out at 2.1, the MIC90 is 0.106 µM and the “MIC90 LORA/MABA” value came to 19.

For the compound `CO[C@H]1/C=C/O[C@@]2(C)Oc3c(C)c(O)c4c(=O)c(c5oc6cc(N7CCN(CC(C)C)CC7)cc(OCc7ccc(CN8CCOCC8)cc7)c6nc-5c4c3C2=O)NC(=O)/C(C)=C\C=C\[C@H](C)[C@H](O)[C@@H](C)[C@@H](O)[C@@H](C)[C@H](OC(C)=O)[C@@H]1C` [Compound 17e, (7S,9E,11S,12R,13S,14R,15R,16R,17S,18S,19E,21Z)-2,15,17-Trihydroxy-11-methoxy-3,7,12,14,16,18,22-heptamethyl-30-[4-(2-methylpropyl)piperazin-1-yl]-32-({4-[(morpholin-4-yl)methyl]phenyl}methoxy)-6,23,37-trioxo-8,27,38-trioxa-24,34-diazahexacyclo[23.11.1.1^4,7.0^5,36.0^26,35.0^28,33]octatriaconta-1(36)2,4,9,19,21,25,28,30,32,34-undecaen-13-yl acetate], in experiment [1], the “MBC99 Day 7 (Lux Assay) MBC Rel to RMP” value is listed as 0.20. Also, the MBC in experiment [1] (setting [3]) turned out to be 0.093 µM. This compound gave an MIC90 in experiment [1] (day 7 of time-kill study) of 0.009 µM. Further, the MBC in experiment [1] (setting [4]) turned out to be 0.093 µM. Moreover, the “more potent than RMP in terms of day 7 MBC” value in experiment [1] (day 7) was “approximately 10 fold”. Besides, in experiment [2], the “MIC90 LORA Rel to RMP” value was found to be 0.11, the MIC turned out to be 0.0094 µM and the “MIC90 LORA/MABA” value is reported as 1.9.

As for `CO[C@H]1/C=C/O[C@@]2(C)Oc3c(C)c(O)c4c(=O)c(c5oc6cccc(OCc7ccc(CN8CCOCC8)cc7)c6nc-5c4c3C2=O)NC(=O)/C(C)=C\C=C\[C@H](C)[C@H](O)[C@@H](C)[C@@H](O)[C@@H](C)[C@H](OC(C)=O)[C@@H]1C` [Compound 16d, (7S,9E,11S,12R,13S,14R,15R,16R,17S,18S,19E,21Z)-2,15,17-Trihydroxy-11-methoxy-3,7,12,14,16,18,22-heptamethyl-32-({4-[(morpholin-4-yl)methyl]phenyl}methoxy)-6,23,37-trioxo-8,27,38-trioxa-24,34-diazahexacyclo[23.11.1.1^4,7.0^5,36.0^26,35.0^28,33]octatriaconta-1(36)2,4,9,19,21,25,28,30,32,34-undecaen-13-yl acetate], in experiment [1], the “MBC99 Day 7 (Lux Assay) MBC Rel to RMP” value turned out to be 0.20. In addition, the MBC in experiment [1] (setting [3]) was determined as 0.092 µM. Further, in experiment [2], the “MIC90 LORA Rel to RMP” value turned out to be 0.62, the MIC90 came out at 0.031 µM and the “MIC90 LORA/MABA” value is 8.4.

In the case of `CO[C@H]1/C=C/O[C@@]2(C)Oc3c(C)c(O)c4c(=O)c(c5oc6cc(N7CCN(C8CCN(C)CC8)CC7)cc(OCc7ccc(CN8CCOCC8)cc7)c6nc-5c4c3C2=O)NC(=O)/C(C)=C\C=C\[C@H](C)[C@H](O)[C@@H](C)[C@@H](O)[C@@H](C)[C@H](OC(C)=O)[C@@H]1C` [Compound 17h, (7S,9E,11S,12R,13S,14R,15R,16R,17S,18S,19E,21Z)-2,15,17-trihydroxy-11-methoxy-3,7,12,14,16,18,22-heptamethyl-30-[4-(1-methylpiperidin-4-yl)piperazin-1-yl]-32-{[4-(morpholin-4-ylmethyl)phenyl]methoxy}-6,23,37-trioxo-8,27,38-trioxa-24,34-diazahexacyclo-[23.11.1.1^4,7.0^5,36.0^26,35.0^28,33]octatriaconta-1,3,5(36)9,19,21,25,28,30,32,34-undecaen-13-yl acetate], the MBC in experiment [1] (setting [3]) is more than 0.1 µM. In addition, in experiment [2], the “MIC90 LORA Rel to RMP” value amounted to 12, the MIC90 worked out at 0.318 µM and the “MIC90 LORA/MABA” value is recorded as 9.0.

For `CO[C@H]1/C=C/O[C@@]2(C)Oc3c(C)c(O)c4c(=O)c(c5oc6cc(N7CCN(CC(=O)O)CC7)cc(OCc7ccc(CN8CCOCC8)cc7)c6nc-5c4c3C2=O)NC(=O)/C(C)=C\C=C\[C@H](C)[C@H](O)[C@@H](C)[C@@H](O)[C@@H](C)[C@H](OC(C)=O)[C@@H]1C` [Compound 17i], in experiment [1] (setting [3]), the MBC is more than 0.1 µM. Besides, in experiment [2], the “MIC90 LORA Rel to RMP” value is recorded as 9.2, the MIC came to 0.247 µM (≈ 0.28 µg/mL) and the “MIC90 LORA/MABA” value is reported as 9.5.

Turning to `CO[C@H]1/C=C/O[C@@]2(C)Oc3c(C)c(O)c4c(=O)c(c5oc6cccc(OCc7cccc(CN8CCN(C(=O)CN9CCOCC9)CC8)c7)c6nc-5c4c3C2=O)NC(=O)/C(C)=C\C=C\[C@H](C)[C@H](O)[C@@H](C)[C@@H](O)[C@@H](C)[C@H](OC(C)=O)[C@@H]1C` [Compound 11f, (7S,9E,11S,12R,13S,14R,15R,16R,17S,1S,19E,21Z)-2,15,17-Trihydroxy-11-methoxy-3,7,12,14,16,18,22-heptamethyl-32-{[3-({4-[2-(morpholin-4-yl)acetyl]piperazin-1-yl}methyl)phenyl]methoxy}-6,23,37-trioxo-8,27,38-trioxa-24,34-diazahexacyclo[23.11.1.1^4,7.0^5,36.0^26,35.0^28,33]octatriaconta-1(36)2,4,9,19,21,25,28,30,32,34-undecaen-13-yl acetate], the “MBC99 Day 7 (Lux Assay) MBC Rel to RMP” value in experiment [1] stood at 0.11. The MBC in experiment [1] (setting [3]) amounted to 0.084 µM. Moreover, in experiment [2], the “MIC90 LORA Rel to RMP” value was determined as 0.39, the MIC90 was found to be 0.37 µM and the “MIC90 LORA/MABA” value turned out to be 15.

Consider `COC(=O)N1CCN(c2cc(C)c3nc4c5c6c7c(C)c(O)c5c(=O)c(c-4oc3c2)NC(=O)/C(C)=C\C=C\[C@H](C)[C@H](O)[C@@H](C)[C@@H](O)[C@@H](C)[C@H](OC(C)=O)[C@H](C)[C@@H](OC)/C=C/O[C@@](C)(O7)C6=O)CC1` [Compound 26g, Methyl 4-[(7S,9E,11S,12R,13S,14R,15R,16R,17S,18S,19E,21Z)-13-(acetyloxy)-2,15,17-trihydroxy-11-methoxy-3,7,12,14,16,18,22,32-octamethyl-6,23,37-trioxo-8,27,38-trioxa-24,34-diazahexacyclo[23.11.1.1^4,7.0^5,36.0^26,35.0^28,33]octatriaconta-1(36)2,4,9,19,21,25,28,30,32,34-undecaen-30-yl]piperazine-1-carboxylate], for which the “MBC99 Day 7 (Lux Assay) MBC Rel to RMP” value in experiment [1] was 0.09. In experiment [1] (setting [3]), the MBC came out at 0.043 µM (≈ 0.0405 µg/mL). For the same compound, in experiment [2], the “MIC90 LORA Rel to RMP” value was found to be 0.05, the MIC90 was found to be 0.0096 µM (≈ 0.00903 µg/mL) and the “MIC90 LORA/MABA” value was found to be 1.9.

Turning to `CO[C@H]1/C=C/O[C@@]2(C)Oc3c(C)c(O)c4c(=O)c(c5oc6cc(N7CCN(C(=O)c8ccncc8)CC7)cc(OCc7ccc(CN8CCOCC8)cc7)c6nc-5c4c3C2=O)NC(=O)/C(C)=C\C=C\[C@H](C)[C@H](O)[C@@H](C)[C@@H](O)[C@@H](C)[C@H](OC(C)=O)[C@@H]1C` [Compound 17n, 7S,9E,11S,12R,13S,14R,15R,16R,17S,18S,19E,21Z)-2,15,17-trihydroxy-11-methoxy-3,7,12,14,16,18,22-heptamethyl-32-{[4-(morpholin-4-ylmethyl)phenyl]methoxy}-6,23,37-trioxo-30-{4-[(pyridin-4-yl)carbonyl]piperazin-1-yl}-8,27,38-trioxa-24,34-diazahexacyclo[23.11.1.1^4,7.0^5,36.0^26,35.0^28,33]octatriaconta-1,3,5(36)9,19,21,25,28,30,32,34-undecaen-13-yl acetate], the “MBC99 Day 7 (Lux Assay) MBC Rel to RMP” value in experiment [1] is given as 0.70. In experiment [1] (setting [3]), the MBC is 0.315 µM. Besides, in experiment [2], the “MIC90 LORA Rel to RMP” value is listed as 4.7, the MIC90 was found to be 0.235 µM and the “MIC90 LORA/MABA” value is given as 3.2.

As for `CO[C@H]1/C=C/O[C@@]2(C)Oc3c(C)c(O)c4c(O)c(c(/C=N/N5CCN(C)CC5)c(O)c4c3C2=O)NC(=O)/C(C)=C\C=C\[C@H](C)[C@H](O)[C@@H](C)[C@@H](O)[C@@H](C)[C@H](OC(C)=O)[C@@H]1C` [RMP, rifampin, reference compound], the “MBC99 Day 7 (Lux Assay) MBC Rel to RMP” value in experiment [1] is listed as 1. Besides, the MBC in experiment [1] (setting [3]) and in experiment [1] (setting [4]) was 0.463 µM (≈ 0.381 µg/mL) each time. The MIC90 in experiment [1] (day 7 of time-kill study) is 0.03 µM (≈ 0.0247 µg/mL); in experiment [2], 0.206 µM (≈ 0.17 µg/mL). Also, the “MIC90 LORA Rel to RMP” value in experiment [2] (LORA MIC90 relative to rifampin (RMP = 1)) stood at 1. The “MIC90 LORA/MABA” value in experiment [2] turned out to be 7.6.

Consider `CO[C@H]1/C=C/O[C@@]2(C)Oc3c(C)c(O)c4c(=O)c(c5oc6cccc(OCc7ccc(CN8CCN(C(=O)CN9CCOCC9)CC8)cc7)c6nc-5c4c3C2=O)NC(=O)/C(C)=C\C=C\[C@H](C)[C@H](O)[C@@H](C)[C@@H](O)[C@@H](C)[C@H](OC(C)=O)[C@@H]1C` [Compound 16c, (7S,9E,11S,12R,13S,14R,15R,16R,17S,18S,19E,21Z)-2,15,17-Trihydroxy-11-methoxy-3,7,12,14,16,18,22-heptamethyl-32-{[4-({4-[2-(morpholin-4-yl)acetyl]piperazin-1-yl}methyl)phenyl]methoxy}-6,23,37-trioxo-8,27,38-trioxa-24,34-diazahexacyclo[23.11.1.1^4,7.0^5,36.0^26,35.0^28,33]octatriaconta-1(36)2,4,9,19,21,25,28,30,32,34-undecaen-13-yl acetate], for which, in experiment [1], the “MBC99 Day 7 (Lux Assay) MBC Rel to RMP” value is 0.08. Further, in experiment [1] (setting [3]), the MBC is 0.061 µM.
